According to PubChem BioAssay (NCI):
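Briefly, cells in 96-well plates were exposed to five compound concentrations for 48 h, and endpoints were estimated by linear interpolation. TGI denotes the concentration required for complete inhibition of growth.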

Key:
Experiment in all cases: NCI anticancer screen, dose series, 48 h
MDA-MB-435 = test system: MDA-MB-435
OVCAR-3 ovarian = test system: OVCAR-3 ovarian
NCI-H460 lung = test system: NCI-H460 lung
CAKI-1 renal = test system: CAKI-1 renal
DLD-1 colon = test system: DLD-1 colon
HL-60(TB) leukemia = test system: HL-60(TB) leukemia
XF 498 CNS = test system: XF 498 CNS
KM12 colon = test system: KM12 colon
KM20L2 colon = test system: KM20L2 colon
MOLT-4 leukemia = test system: MOLT-4 leukemia
DMS 273 small cell lung = test system: DMS 273 small cell lung
UACC-257 melanoma = test system: UACC-257 melanoma
HCT-15 colon = test system: HCT-15 colon
HOP-18 NSCLC = test system: HOP-18 NSCLC
TK-10 renal = test system: TK-10 renal
HCC-2998 colon = test system: HCC-2998 colon
HOP-92 NSCLC = test system: HOP-92 NSCLC
SNB-78 CNS = test system: SNB-78 CNS
SF-539 CNS = test system: SF-539 CNS
M19-MEL melanoma = test system: M19-MEL melanoma
SNB-75 CNS = test system: SNB-75 CNS
U251 CNS = test system: U251 CNS
HCT-116 colon = test system: HCT-116 colon
RXF 393 renal = test system: RXF 393 renal
ACHN renal = test system: ACHN renal
MALME-3M melanoma = test system: MALME-3M melanoma
CCRF-CEM leukemia = test system: CCRF-CEM leukemia
BT-549 breast = test system: BT-549 breast
UACC-62 melanoma = test system: UACC-62 melanoma
SK-MEL-28 melanoma = test system: SK-MEL-28 melanoma
K-562 leukemia = test system: K-562 leukemia
IGROV1 ovarian = test system: IGROV1 ovarian
SK-OV-3 ovarian = test system: SK-OV-3 ovarian
A549 NSCLC = test system: A549 NSCLC
MDA-MB-231 breast = test system: MDA-MB-231 breast
DU-145 prostate = test system: DU-145 prostate
NCI-H23 lung = test system: NCI-H23 lung
T-47D breast = test system: T-47D breast
SF-295 CNS = test system: SF-295 CNS
OVCAR-4 ovarian = test system: OVCAR-4 ovarian
786-0 renal = test system: 786-0 renal
LOX IMVI melanoma = test system: LOX IMVI melanoma
MCF7 breast = test system: MCF7 breast
SF-268 CNS = test system: SF-268 CNS
NCI-H522 lung = test system: NCI-H522 lung
SK-MEL-2 melanoma = test system: SK-MEL-2 melanoma
A498 renal = test system: A498 renal
LXFL 529 NSCLC = test system: LXFL 529 NSCLC
SW-620 colon = test system: SW-620 colon
SNB-19 CNS = test system: SNB-19 CNS
SR leukemia = test system: SR leukemia
EKVX NSCLC = test system: EKVX NSCLC
NCI-H226 lung = test system: NCI-H226 lung
RPMI-8226 leukemia = test system: RPMI-8226 leukemia
PC-3 prostate = test system: PC-3 prostate
M14 melanoma = test system: M14 melanoma
HT29 colon = test system: HT29 colon
SN12C renal = test system: SN12C renal
COLO 205 colon = test system: COLO 205 colon
HS 578T breast = test system: HS 578T breast
UO-31 renal = test system: UO-31 renal
OVCAR-8 ovarian = test system: OVCAR-8 ovarian
MDA-N = test system: MDA-N
SK-MEL-5 melanoma = test system: SK-MEL-5 melanoma
OVCAR-5 ovarian = test system: OVCAR-5 ovarian
HOP-62 NSCLC = test system: HOP-62 NSCLC
DMS 114 small cell lung = test system: DMS 114 small cell lung

`COc1ccc(N2C(=O)/C(=C/c3ccc(N(CCC#N)CCC#N)cc3C)N=C2c2cc([N+](=O)[O-])ccc2Cl)cc1` gave a TGI (MDA-MB-435) of 6.1 µM, a TGI (OVCAR-3 ovarian) of 11.3 µM and a TGI (NCI-H460 lung) of over 56.2 µM. For the same compound, the TGI (CAKI-1 renal) was over 36.3 µM, the TGI (DLD-1 colon) was over 100 µM and the TGI (HL-60(TB) leukemia) was 26.6 µM. The TGI (XF 498 CNS) was 8.12 µM, the TGI (KM12 colon) was 45.8 µM and the TGI (KM20L2 colon) was 7.39 µM. For the same compound, the TGI (MOLT-4 leukemia) was 53.5 µM, the TGI (DMS 273 small cell lung) was over 27 µM and the TGI (UACC-257 melanoma) was over 56.2 µM. It also gave a TGI (HCT-15 colon) of 59.5 µM, a TGI (HOP-18 NSCLC) of over 100 µM and a TGI (TK-10 renal) of over 63.1 µM. For the same compound, the TGI (HCC-2998 colon) was 15.2 µM, the TGI (HOP-92 NSCLC) was over 100 µM and the TGI (SNB-78 CNS) was over 100 µM. For the same compound, the TGI (SF-539 CNS) was 7.22 µM, the TGI (M19-MEL melanoma) was over 100 µM and the TGI (SNB-75 CNS) was 7.06 µM. For the same compound, the TGI (U251 CNS) was 43.3 µM, the TGI (HCT-116 colon) was 29.3 µM and the TGI (RXF 393 renal) was over 46.4 µM. For the same compound, the TGI (ACHN renal) was over 63.1 µM, the TGI (MALME-3M melanoma) was over 56.2 µM and the TGI (CCRF-CEM leukemia) was 37.7 µM. The TGI (BT-549 breast) was over 100 µM, the TGI (UACC-62 melanoma) was over 46.4 µM and the TGI (SK-MEL-28 melanoma) was over 63.1 µM. For the same compound, the TGI (K-562 leukemia) was 36.7 µM, the TGI (IGROV1 ovarian) was over 63.1 µM and the TGI (SK-OV-3 ovarian) was over 63.1 µM. It also gave a TGI (A549 NSCLC) of over 72 µM, a TGI (MDA-MB-231 breast) of 49.4 µM and a TGI (DU-145 prostate) of 34.8 µM. For the same compound, the TGI (NCI-H23 lung) was over 61.6 µM, the TGI (T-47D breast) was over 100 µM and the TGI (SF-295 CNS) was 5.8 µM. The TGI (OVCAR-4 ovarian) was over 46.4 µM, the TGI (786-0 renal) was 43.7 µM and the TGI (LOX IMVI melanoma) was over 56.2 µM. The TGI (MCF7 breast) was over 46.4 µM, the TGI (SF-268 CNS) was over 63.1 µM and the TGI (NCI-H522 lung) was 12.5 µM. For the same compound, the TGI (SK-MEL-2 melanoma) was 39.6 µM, the TGI (A498 renal) was over 56.2 µM and the TGI (LXFL 529 NSCLC) was over 100 µM. The TGI (SW-620 colon) was over 56.2 µM, the TGI (SNB-19 CNS) was 28.9 µM and the TGI (SR leukemia) was 35.4 µM. The TGI (EKVX NSCLC) was over 46.4 µM, the TGI (NCI-H226 lung) was 42.8 µM and the TGI (RPMI-8226 leukemia) was over 63.1 µM. It also gave a TGI (PC-3 prostate) of over 46.4 µM, a TGI (M14 melanoma) of 24.4 µM and a TGI (HT29 colon) of 9.95 µM. It also gave a TGI (SN12C renal) of over 56.2 µM, a TGI (COLO 205 colon) of 25.6 µM and a TGI (HS 578T breast) of 5.96 µM. The TGI (UO-31 renal) was over 63.1 µM, the TGI (OVCAR-8 ovarian) was 45.7 µM and the TGI (MDA-N) was 4.98 µM. For the same compound, the TGI (SK-MEL-5 melanoma) was 51.8 µM, the TGI (OVCAR-5 ovarian) was over 63.1 µM and the TGI (HOP-62 NSCLC) was over 63.1 µM. The TGI (DMS 114 small cell lung) was over 23.5 µM.
Compound `Nc1c(-c2ccc(Cl)cc2)[n+]([O-])c2ccccc2[n+]1[O-]` has a TGI (OVCAR-3 ovarian) of over 100 µM, a TGI (NCI-H460 lung) of over 100 µM and a TGI (CAKI-1 renal) of over 100 µM. It also gave a TGI (DLD-1 colon) of over 100 µM, a TGI (HL-60(TB) leukemia) of over 100 µM and a TGI (XF 498 CNS) of over 100 µM. It also gave a TGI (KM12 colon) of over 100 µM, a TGI (KM20L2 colon) of over 100 µM and a TGI (MOLT-4 leukemia) of over 100 µM. For the same compound, the TGI (DMS 273 small cell lung) was over 100 µM, the TGI (UACC-257 melanoma) was over 100 µM and the TGI (HCT-15 colon) was over 100 µM. For the same compound, the TGI (HOP-18 NSCLC) was over 100 µM, the TGI (TK-10 renal) was over 100 µM and the TGI (HCC-2998 colon) was over 100 µM. It also gave a TGI (HOP-92 NSCLC) of over 100 µM, a TGI (SNB-78 CNS) of over 100 µM and a TGI (SF-539 CNS) of over 100 µM. For the same compound, the TGI (M19-MEL melanoma) was over 100 µM, the TGI (SNB-75 CNS) was over 100 µM and the TGI (U251 CNS) was over 100 µM. The TGI (ACHN renal) was over 100 µM, the TGI (MALME-3M melanoma) was over 100 µM and the TGI (CCRF-CEM leukemia) was over 100 µM. For the same compound, the TGI (UACC-62 melanoma) was over 100 µM, the TGI (SK-MEL-28 melanoma) was over 100 µM and the TGI (K-562 leukemia) was over 100 µM. For the same compound, the TGI (IGROV1 ovarian) was over 100 µM, the TGI (SK-OV-3 ovarian) was over 100 µM and the TGI (A549 NSCLC) was over 100 µM. It also gave a TGI (NCI-H23 lung) of over 100 µM, a TGI (SF-295 CNS) of over 100 µM and a TGI (OVCAR-4 ovarian) of over 100 µM. For the same compound, the TGI (786-0 renal) was over 100 µM, the TGI (LOX IMVI melanoma) was over 100 µM and the TGI (SF-268 CNS) was over 100 µM. The TGI (NCI-H522 lung) was 85.6 µM, the TGI (SK-MEL-2 melanoma) was over 100 µM and the TGI (A498 renal) was over 100 µM. For the same compound, the TGI (LXFL 529 NSCLC) was over 100 µM, the TGI (SW-620 colon) was over 100 µM and the TGI (SNB-19 CNS) was over 100 µM. For the same compound, the TGI (EKVX NSCLC) was over 100 µM, the TGI (NCI-H226 lung) was over 100 µM and the TGI (RPMI-8226 leukemia) was over 100 µM. It also gave a TGI (M14 melanoma) of over 100 µM, a TGI (HT29 colon) of over 100 µM and a TGI (SN12C renal) of over 100 µM. It also gave a TGI (COLO 205 colon) of over 100 µM, a TGI (UO-31 renal) of 55.3 µM and a TGI (OVCAR-8 ovarian) of over 100 µM. The TGI (SK-MEL-5 melanoma) was over 100 µM, the TGI (OVCAR-5 ovarian) was over 100 µM and the TGI (HOP-62 NSCLC) was over 100 µM. For the same compound, the TGI (DMS 114 small cell lung) was over 100 µM.
